Data reported in US7326699B2, “4-Amino-5-phenyl-7-cyclobutyl-pyrrolo(2,3-d)pyrimidine derivatives” (Novartis AG, priority 2001, dated 2008).
pIC50: −log10 of the molar value.

Target: T1, human IGF-IR (Homo sapiens, UniProt P08069)
T1 construct: complete human IGF-IR cDNA: GenBank Acc; No. NM_000875; expressed in transfected cells; host or cells: NIH-3T3 mouse fibroblasts
Assay: cellular "Capture ELISA": IGF-I induced IGF-IR autophosphorylation
Format: cell-based
Conditions: NIH-3T3 mouse fibroblasts transfected with human IGF-IR cDNA, 90 min compound, 10 ng/ml IGF-I for 10 min
Procedure: In this assay the activity of the compounds of the invention against Insulin-like growth factor I (IGF-I) induced autophosphorylation of the IGF-IGF-IR is determined. The assay is conducted as follows:
The cells which overexpress human IGF-IGF-IR are cultured in Dulbecco's minimal essential (DMEM) medium, containing 10% Fetal Calf Serum (FCS). […] On day 3 the medium is discarded and the cells are incubated for 24 h in minimal medium (DMEM, containing 0.5% FCS). […] The cells are incubated for 90 min in the presence of a compound of formula I. Thereafter the cells are stimulated with 50 μl IGF-I (final concentration of IGF-I in the well=10 ng/ml; IGF-I is obtained from Sigma; Product Code: I3769) and incubated for 10 min at 37° C.
The medium is discarded and the cells are washed twice with PBS/O (=Phosphate-Buffered Saline without CaCl2) and lysed for 15 min on ice with 50 μl/well RIPA-buffer [50 mM Tris.HCl, pH=7.2, 120 mM NaCl, 1 mM EDTA, 6 mM EGTA, 1% NP-40, 20 mM NaF, 1 mM benzamidine, 15 mM sodium pyrophosphate, 1 mM Phenyl methyl sulphonyl fluoride (PMSF) and 0.5 mM Na3VO4] and shaken for 10 min using a 96-well plate shaker (=cellular extracts).
The plates are washed twice with 0.05% (v/v) Tween-20 in Phosphate-Buffered Saline (PBS) and once with nanopure H2O. […] After blocking, the plates are washed once with nanopure H2O.
After incubating the extracts and the secondary antibody for 2 h at 4° C., the extracts are discarded, the plates are washed twice with 0.05% (v/v) Tween-20 in PBS and once with nanopure water.
90 μl/well AP substrate (CDP-Star; obtained from Tropix; Cat. No.: MS100RY) are then added and the plates are incubated for 45 min at RT in the dark, followed by measuring AP activity in a Packard Top Count Microplate Scintillation Counter. The IC50 values for the compounds of formula I are calculated via linear regression analysis using the GraphPad In-stat program (GraphPad Software, USA).
Test for activity against IGF-I induced IGF-IR autophosphorylation using the cellular “Capture ELISA” test
The cellular “Capture ELISA” test is carried out as described above.

T1 sequence (P08069 31-1367): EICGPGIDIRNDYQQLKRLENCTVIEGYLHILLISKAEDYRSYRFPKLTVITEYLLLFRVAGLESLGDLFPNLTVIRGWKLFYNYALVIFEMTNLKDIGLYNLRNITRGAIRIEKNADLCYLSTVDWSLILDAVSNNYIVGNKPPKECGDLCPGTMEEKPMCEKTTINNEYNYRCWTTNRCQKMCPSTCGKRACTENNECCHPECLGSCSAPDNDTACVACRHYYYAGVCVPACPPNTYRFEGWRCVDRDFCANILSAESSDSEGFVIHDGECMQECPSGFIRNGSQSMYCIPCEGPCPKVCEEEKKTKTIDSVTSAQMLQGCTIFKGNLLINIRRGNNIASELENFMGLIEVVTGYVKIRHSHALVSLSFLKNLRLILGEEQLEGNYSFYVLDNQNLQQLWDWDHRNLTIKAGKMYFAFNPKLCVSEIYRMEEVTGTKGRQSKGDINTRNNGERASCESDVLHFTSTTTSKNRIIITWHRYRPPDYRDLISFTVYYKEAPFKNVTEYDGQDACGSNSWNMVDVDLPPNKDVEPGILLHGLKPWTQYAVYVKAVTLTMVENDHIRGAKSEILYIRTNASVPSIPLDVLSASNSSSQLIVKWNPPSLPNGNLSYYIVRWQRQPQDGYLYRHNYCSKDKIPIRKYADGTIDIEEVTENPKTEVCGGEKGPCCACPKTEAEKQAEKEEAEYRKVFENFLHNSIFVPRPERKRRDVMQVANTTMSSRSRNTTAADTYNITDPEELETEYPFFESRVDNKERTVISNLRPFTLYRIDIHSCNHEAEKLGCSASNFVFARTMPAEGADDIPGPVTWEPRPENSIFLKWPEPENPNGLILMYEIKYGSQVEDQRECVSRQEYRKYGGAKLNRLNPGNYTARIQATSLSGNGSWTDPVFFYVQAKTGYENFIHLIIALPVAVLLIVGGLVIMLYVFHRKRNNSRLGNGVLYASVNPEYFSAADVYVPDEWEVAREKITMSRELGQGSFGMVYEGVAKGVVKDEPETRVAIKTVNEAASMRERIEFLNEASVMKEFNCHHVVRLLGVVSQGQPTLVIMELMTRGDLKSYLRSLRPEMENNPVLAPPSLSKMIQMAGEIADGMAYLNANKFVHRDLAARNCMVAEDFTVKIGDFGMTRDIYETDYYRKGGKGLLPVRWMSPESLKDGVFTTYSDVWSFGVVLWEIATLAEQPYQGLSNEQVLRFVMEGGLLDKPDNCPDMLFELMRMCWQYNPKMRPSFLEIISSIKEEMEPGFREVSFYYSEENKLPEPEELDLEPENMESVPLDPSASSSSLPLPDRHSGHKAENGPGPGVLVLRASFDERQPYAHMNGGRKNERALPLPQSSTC

| SMILES | pIC50 |
| --- | --- |
| Cc1c(-c2cccc(OCc3ccccc3)c2)c2c(N)ncnc2n1[C@H]1C[C@@H](CN2CCN(C)CC2)C1 [Example 117, cis-5-(3-Benzyloxy-phenyl)-6-methyl-7-[3-(4-methyl-piperazin-1-ylmethyl)-cyclobutyl]-7H-pyrrolo[2,3-d]pyrimidin-4-ylamine] | 6.89 |
| CS(=O)(=O)NC[C@H]1C[C@@H](n2cc(-c3cccc(OCc4ccccc4)c3)c3c(N)ncnc32)C1 [Example 14, cis-N-{3-[4-Amino-5-(3-benzyloxy-phenyl)-pyrrolo[2,3-d]pyrimidin-7-yl]-cyclobutylmethyl}-methanesulfonamide] | 7.52 |
| Cc1c(-c2cccc(OCc3ccccc3)c2)c2c(N)ncnc2n1[C@H]1C[C@H](CN2CCC(O)CC2)C1 [Example 109, trans-1-{3-[4-Amino-5-(3-benzyloxy-phenyl)-6-methyl-pyrrolo[2,3-d]pyrimidin-7-yl]-cyclobutylmethyl}-piperidin-4-ol] | 6.82 |
| Nc1ncnc2c1c(-c1cccc(OCc3ccccc3)c1)cn2[C@H]1C[C@H](CNC(=O)OCCN2CCOCC2)C1 [Example 96, trans-{3-[4-Amino-5-(3-benzyloxy-phenyl)-pyrrolo[2,3-d]pyrimidin-7-yl]-cyclobutylmethyl}-carbamic acid 2-morpholin-4-yl-ethyl ester] | 7.30 |
| Nc1ncnc2c1c(-c1cccc(OCc3ccccc3)c1)cn2[C@H]1C[C@@H](CNC(=O)CN2CCCCC2)C1 [Example 57, cis-N-{3-[4-Amino-5-(3-benzyloxy-phenyl)-pyrrolo[2,3-d]pyrimidin-7-yl]-cyclobutylmethyl}-2-piperidin-1-yl-acetamide] | 7.74 |
| CCN(CC)CCOC(=O)NC[C@H]1C[C@H](n2cc(-c3cccc(OCc4ccccc4)c3)c3c(N)ncnc32)C1 [Example 95, trans-{3-[4-amino-5-(3-benzyloxy-phenyl)pyrrolo[2,3-d]pyrimidin-7-yl]-cyclobutylmethyl}-carbamic acid 2-diethylamino-ethyl ester] | 7.10 |
| CCCNC(=O)NC[C@H]1C[C@H](n2cc(-c3cccc(OCc4ccccc4)c3)c3c(N)ncnc32)C1 [Example 28, trans-1-{3-[4-Amino-5-(3-benzyloxy-phenyl)-pyrrolo[2,3-d]pyrimidin-7-yl]-cyclobutylmethyl}-3-propyl-urea] | 7.30 |
| CNC(=O)NC[C@H]1C[C@@H](n2cc(-c3cccc(OCc4ccccc4)c3)c3c(N)ncnc32)C1 [Example 88, cis-1-{3-[4-Amino-5-(3-benzyloxy-phenyl)-pyrrolo[2,3-d]pyrimidin-7-yl]-cyclobutylmethyl}-3-methyl-urea] | 7.24 |
| NC(=O)NC[C@H]1C[C@@H](n2cc(-c3cccc(OCc4ccccc4)c3)c3c(N)ncnc32)C1 [Example 49, cis-{3-[4-Amino-5-(3-benzyloxy-phenyl)-pyrrolo[2,3-d]pyrimidin-7-yl]-cyclobutylmethyl}-urea] | 7.40 |
| COC(=O)NC[C@H]1C[C@@H](n2cc(-c3cccc(OCc4ccccc4)c3)c3c(N)ncnc32)C1 [Example 23, cis-{3-[4-Amino-5-(3-benzyloxy-phenyl)-pyrrolo[2,3-d]pyrimidin-7-yl]-cyclobutylmethyl}-carbamic acid methyl ester] | 7.51 |
| COCCOC(=O)NC[C@H]1C[C@H](n2cc(-c3cccc(OCc4ccccc4)c3)c3c(N)ncnc32)C1 [Example 24, trans-{3-[4-Amino-5-(3-benzyloxy-phenyl)-pyrrolo[2,3-d]pyrimidin-7-yl]-cyclobutylmethyl}-carbamic acid 2-methoxy-ethyl ester] | 7.02 |
| Cc1c(-c2cccc(OCc3ccccc3)c2)c2c(N)ncnc2n1[C@H]1C[C@H](CN2CCC2)C1 [Example 110, trans-7-(3-Azetidin-1-ylmethyl-cyclobutyl)-5-(3-benzyloxy-phenyl)-6-methyl-7-H-pyrrolo[2,3-d]pyrimidin-4-ylamine] | 6.85 |
| Nc1ncnc2c1c(-c1cccc(OCc3ccccc3)c1)cn2[C@H]1C[C@@H](CN2CCC(O)CC2)C1 [Example 77, cis-1-{3-[4-Amino-5-(3-benzyloxy-phenyl)-pyrrolo[2,3-d]pyrimidin-7-yl]-cyclobutylmethyl}-piperidin-4-ol] | 7.30 |
| Nc1ncnc2c1c(-c1cccc(OCc3ccccc3)c1)cn2[C@H]1C[C@H](CNC(=O)N2CCCCC2)C1 [Example 90, trans-Piperidine-1-carboxylic acid {3-[4-amino-5-(3-benzyloxy-phenyl)-pyrrolo[2,3-d]pyrimidin-7-yl]-cyclobutylmethyl}-amide] | 7.05 |

Now from value to compound:

| pIC50 | SMILES |
| --- | --- |
| 7.15 | CNC[C@H]1C[C@H](n2cc(-c3cccc(OCc4ccccc4)c3)c3c(N)ncnc32)C1 [Example 10, trans-5-(3-Benzyloxy-phenyl)-7-(3-methylaminomethyl-cyclobutyl)-7H-pyrrolo[2,3-d]pyrimidin-4-ylamine] |
| 7.21 | NC[C@H]1C[C@@H](n2cc(-c3cccc(OCc4ccccc4)c3)c3c(N)ncnc32)C1 [Example 1, cis-7-(3-aminomethyl-cyclobutyl)-5-(3-benzyloxy-phenyl)-7H-pyrrolo[2,3-d]pyrimidin-4-ylamine] |
| 7.52 | CC(C)NC(=O)NC[C@H]1C[C@@H](n2cc(-c3cccc(OCc4ccccc4)c3)c3c(N)ncnc32)C1 [Example 31, cis-1-{3-[4-Amino-5-(3-benzyloxy-phenyl)-pyrrolo[2,3-d]pyrimidin-7-yl]-cyclobutylmethyl}-3-isopropyl-urea] |
| 7.38 | CNC[C@H]1C[C@@H](n2cc(-c3cccc(OCc4ccccc4)c3)c3c(N)ncnc32)C1 [Example 9, cis-5-(3-Benzyloxy-phenyl)-7-(3-methylaminomethyl-cyclobutyl)-7H-pyrrolo[2,3-d]pyrimidin-4-ylamine] |
| 7.40 | CN(C)CCOC(=O)NC[C@H]1C[C@H](n2cc(-c3cccc(OCc4ccccc4)c3)c3c(N)ncnc32)C1 [Example 98, trans-{3-[4-Amino-5-(3-benzyloxy-phenyl)-pyrrolo[2,3-d]pyrimidin-7-yl]-cyclobutylmethyl}-carbamic acid 2-dimethylamino-ethyl ester] |
| 7.10 | Nc1ncnc2c1c(-c1cccc(OCc3ccccc3)c1)cn2[C@H]1C[C@@H](CN2CCSCC2)C1 [Example 81, cis-5-(3-Benzyloxy-phenyl)-7-(3-thiomorpholin-4-ylmethyl-cyclobutyl)-7H-pyrrolo[2,3-d]pyrimidin-4-ylamine] |
| 7.52 | NC[C@H]1C[C@H](n2cc(-c3cccc(OCc4ccccc4)c3)c3c(N)ncnc32)C1 [Example 2, trans-7-(3-aminomethyl-cyclobutyl)-5-(3-benzyloxy-phenyl)-7H-pyrrolo[2,3-d]pyrimidin-4-ylamine] |
| 7.30 | NC(=O)[C@@H]1CCCN1C[C@H]1C[C@H](n2cc(-c3cccc(OCc4ccccc4)c3)c3c(N)ncnc32)C1 [Example 75, trans-(S)1-{3-[4-Amino-5-(3-benzyloxy-phenyl)-pyrrolo[2,3-d]pyrimidin-7-yl]-cyclobutylmethyl}-pyrrolidine-2-carboxylic acid amide] |
| 7.28 | NC(=O)[C@H]1CCCN1C[C@H]1C[C@@H](n2cc(-c3cccc(OCc4ccccc4)c3)c3c(N)ncnc32)C1 [Example 83, cis-(R)-1-{3-[4-Amino-5-(3-benzyloxy-phenyl)-pyrrolo[2,3-d]pyrimidin-7-yl]-cyclobutylmethyl}-pyrrolidine-2-carboxylic acid amide] |
| 7.10 | COC(=O)NC[C@H]1C[C@H](n2cc(-c3cccc(OCc4ccccc4)c3)c3c(N)ncnc32)C1 [Example 22, trans-{3-[4-amino-5-(3-benzyloxy-phenyl)-pyrrolo[2,3-d]pyrimidin-7-yl]-cyclobutylmethyl}-carbamic acid methyl ester] |
| 7.26 | CCNC(=O)NC[C@H]1C[C@H](n2cc(-c3cccc(OCc4ccccc4)c3)c3c(N)ncnc32)C1 [Example 26, trans-1-{3-[4-amino-5-(3-benzyloxy-phenyl)-pyrrolo[2,3-d]pyrimidin-7-yl]-cyclobutylmethyl}-3-ethyl-urea] |
| 7.05 | Cc1c(-c2cccc(OCc3ccccc3)c2)c2c(N)ncnc2n1[C@H]1C[C@H](CN2CCC[C@@H]2CO)C1 [Example 112, trans-((R)-1-{3-[4-Amino-5-(3-benzyloxy-phenyl)-6-methyl-pyrrolo[2,3-d]pyrimidin-7-yl]-cyclobutylmethyl}-pyrrolidin-2-yl)-methanol] |
| 7.30 | CCNC(=O)NC[C@H]1C[C@@H](n2cc(-c3cccc(OCc4ccccc4)c3)c3c(N)ncnc32)C1 [Example 27, cis-{3-[4-Amino-5-(3-benzyloxy-phenyl)pyrrolo[2,3-d]pyrimidin-7-yl]-cyclobutylmethyl}-3-ethyl-urea] |
